≈ marks a conversion by molar mass, not a printed value. Counter-ions that a name gives are not always drawn.
Tests used:
[1] = In-vitro release from FocalSeal-L gel disks, flow-through dissolution tank; format: physicochemical; conditions: FocalSeal-L with 1% dexamethasone and 1% amiodarone HCl; 2 mm gel disc
From the text: Method: […] The gel disks were then placed in a flow-through dissolution tank and gels were sampled over time. Residual drug was extracted from the gel disks with methanol and drug was quantitated by HPLC.

[2] = Modulus and pH of FOCALSEAL-L as a function of drug loading; conditions: loaded into the FOCALSEAL-L formulation
[3] = cited from earlier work

time over which amiodarone HCl is released in-vitro [1] | loading level that maintains acceptable pH and modulus values [2] | Structure (SMILES) | aqueous solubility [3]
11 to 12 days | about 1.5% | CCCCc1oc2ccccc2c1C(=O)c1cc(I)c(OCCN(CC)CC)c(I)c1 [amiodarone, Amiodarone hydrochloride] | 
 |  | C[C@@H]1C[C@H]2[C@@H]3CCC4=CC(=O)C=C[C@]4(C)[C@@]3(F)[C@@H](O)C[C@]2(C)[C@@]1(O)C(=O)CO [dexamethasone free base, dexamethasone] | 10000 µg/mL (≈ 25.5 mM)
